In the NIST ThermoML archive (doi:10.1021/je4010678):

Assay: xn = mol fraction of the nth substance listed
Conditions: 101 kPa, Liquid, Scientific instruments device model 9700

[I-].[K+] [potassium iodide] + C[S+](C)[O-]
electrical conductivity [S/m]
Conditions	293.15 K	295.15 K	297.15 K	299.15 K	301.15 K	303.15 K	305.15 K	307.15 K
x1 = 0.0001281	0.00573	0.00602	0.0063	0.00656	0.00683	0.00711	0.00737	0.00763
x1 = 0.0001586	0.00687	0.00718	0.00749	0.00782	0.00814	0.00847	0.0088	0.0092
x1 = 0.0003312	0.0147	0.0153	0.0159	0.0165	0.0171	0.0177	0.0184	0.0191
x1 = 0.0006135	0.0267	0.0279	0.0291	0.0303	0.0315	0.0328	0.034	0.0352
x1 = 0.001095	0.0457	0.0475	0.0493	0.0511	0.0529	0.0547	0.0566	0.0584
x1 = 0.002002	0.0778	0.0809	0.0841	0.0872	0.0904	0.0936	0.0969	0.1
x1 = 0.005707	0.183	0.19	0.198	0.205	0.213	0.22	0.228	0.235
x1 = 0.01	0.348	0.362	0.377	0.392	0.406	0.421	0.436	0.451
x1 = 0.0197	0.605	0.632	0.659	0.686	0.713	0.741	0.768	0.794
x1 = 0.04	0.8279	0.8651	0.9006	0.9366	0.9737	1.011	1.047	1.083
x1 = 0.0499	0.9283	0.9694	1.013	1.051	1.09	1.132	1.169	1.208
x1 = 0.0707	0.9369	0.9785	1.023	1.067	1.112	1.152	1.199	1.244
